Among the test systems are M14 melanoma; MALME-3M melanoma; MDA-MB-435; NCI-H23 lung; NCI-H522 lung; PC-3 prostate; SN12C renal; SR leukemia; T-47D breast; U251 CNS.
Experiment in all cases: NCI tumour cell line growth inhibition, 48 h

We go through 10 compounds from PubChem BioAssay (NCI).

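Compound exposure: 48 hours, 5 concentrations, 96-well plates. GI50: concentration for 50% inhibition of growth. TGI: total growth inhibition.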 Bounds are passed on as bounds.

As to `Cc1ccc(S(=O)(=O)N/N=C/C(=C/c2ccc(Cl)cc2)CC(/C=N/NS(=O)(=O)c2ccc(C)cc2)=C\c2ccc(Cl)cc2)cc1`, the TGI in the assay with M14 melanoma is 48.1 µM; with MALME-3M melanoma, 22 µM; with MDA-MB-435 it was 14.2 µM; in the assay on NCI-H23 lung, 26.8 µM; with NCI-H522 lung, 16.1 µM; in the assay on PC-3 prostate, 24 µM. The TGI amounted to 35 µM with SN12C renal, 24.5 µM with SR leukemia, 19.2 µM in the assay with T-47D breast and 17.2 µM in the assay with U251 CNS.
Take `O=C(O)c1nc(-c2ccccc2)ncc1-c1nnnn1-c1ccccc1`: the TGI with M14 melanoma, in the assay on MALME-3M melanoma, in the assay on MDA-MB-435, with NCI-H23 lung, in the assay on NCI-H522 lung and with PC-3 prostate was > 100 µM throughout. Further, the TGI in the assay with SN12C renal, with SR leukemia, with T-47D breast and in the assay with U251 CNS was > 100 µM each time.
For `CCCCCCCCCCCCCCCCCCNc1ccn(C2OC(COP(=O)(O)OCC3OC(n4cc(C)c(=O)[nH]c4=O)CC3O)C(O)C2O)c(=O)n1` (centres undefined), the TGI with M14 melanoma is 30.7 µM; in the assay on MALME-3M melanoma, 31.4 µM; in the assay with MDA-MB-435, 33.7 µM; with NCI-H23 lung, 31 µM; in the assay on NCI-H522 lung, 30.3 µM; with PC-3 prostate it was 10.2 µM. Further, the TGI with SN12C renal came out at 33.4 µM; in the assay with SR leukemia, 28.2 µM; in the assay with T-47D breast, 41.8 µM; in the assay on U251 CNS, 34.9 µM.
For `Cc1nc2ccccc2c(=O)n1NC(=O)c1ccc(CS)cc1`, the TGI with M14 melanoma is 34.2 µM; with MALME-3M melanoma, 69.9 µM; in the assay on MDA-MB-435 it was 31.3 µM; in the assay with NCI-H23 lung, 52.1 µM; in the assay with NCI-H522 lung, 27 µM; in the assay with PC-3 prostate, 19.2 µM. Moreover, the TGI in the assay on SN12C renal came out at 70.8 µM; in the assay with SR leukemia it was 43.1 µM; in the assay with T-47D breast it was 87.6 µM; in the assay on U251 CNS, 23.3 µM.
Take `COC(=O)C(C)(NC(=O)C(CC(=O)OC(C)(C)C)NC(=O)OC(C)(C)C)c1ccccc1` (centres undefined): the TGI with M14 melanoma, in the assay with MALME-3M melanoma, in the assay on MDA-MB-435, in the assay on NCI-H23 lung, in the assay with NCI-H522 lung and with PC-3 prostate was > 100 µM throughout. For the same compound, the TGI in the assay on SN12C renal, in the assay with SR leukemia, with T-47D breast and in the assay with U251 CNS was > 100 µM each time.
For `CCCCCN=Cc1c(O)c(O)c(C(C)C)c2cc(C)c(-c3c(C)cc4c(C(C)C)c(O)c(O)c(C=NCCCCC)c4c3O)c(O)c12`, the TGI in the assay with M14 melanoma was > 100 µM; with MALME-3M melanoma it was 33.1 µM; with MDA-MB-435 it was 17.8 µM; in the assay on NCI-H23 lung, > 100 µM; in the assay on NCI-H522 lung, 25.2 µM; in the assay on PC-3 prostate it was 41.1 µM. Also, the TGI is > 100 µM in the assay with SN12C renal, > 100 µM in the assay with SR leukemia, 25.8 µM with T-47D breast and 18 µM with U251 CNS.
In the case of `C=C1CC(c2ccc(OCCCN3C(=O)c4ccccc4C3=O)c(OC)c2)OC1=O` (centres undefined), the TGI in the assay on M14 melanoma is 17.3 µM; with MALME-3M melanoma, 12.4 µM; in the assay on MDA-MB-435, 11.7 µM; in the assay with NCI-H23 lung it was 18.4 µM; in the assay with NCI-H522 lung, 1.54 µM; in the assay with PC-3 prostate it was 25.7 µM. Further, the TGI in the assay on SN12C renal came to 25.4 µM; with SR leukemia it was 2.72 µM; in the assay with T-47D breast, 9.96 µM; in the assay with U251 CNS, 23.5 µM.
In the case of `O=C(O)/C=N\Nc1nc2ccccc2[nH]1`, the TGI in the assay with M14 melanoma, in the assay with MALME-3M melanoma, in the assay on MDA-MB-435, with NCI-H23 lung, with NCI-H522 lung and in the assay on PC-3 prostate was > 100 µM in each case. The TGI in the assay with SN12C renal, in the assay with SR leukemia, with T-47D breast and in the assay with U251 CNS was > 100 µM in each case.
Take `COc1ccc(N=C2SC(=N/N=c3\sc4ccccc4n3C)SC2=Nc2ccc(OC)cc2)cc1`: the TGI with M14 melanoma, in the assay on MALME-3M melanoma, in the assay on MDA-MB-435, in the assay with NCI-H23 lung, in the assay on NCI-H522 lung and with PC-3 prostate was > 100 µM throughout. The TGI in the assay on SN12C renal, in the assay on SR leukemia, with T-47D breast and with U251 CNS was > 100 µM each time.
On to `Cc1nc(N)sc1-c1ccnc(Nc2ccc(N3CCOCC3)cc2)n1`, for which the GI50 is 2.66 µM in the assay on M14 melanoma; 1.86 µM in the assay on MDA-MB-435; 1.6 µM with NCI-H23 lung; 1.41 µM in the assay with NCI-H522 lung; 1.81 µM in the assay on PC-3 prostate; 2.24 µM in the assay with SN12C renal. Moreover, the figures for the GI50 in the assay on SR leukemia, in the assay on T-47D breast and in the assay on U251 CNS were 0.346 µM, 2.92 µM and 2.36 µM, respectively. In addition, the TGI with M14 melanoma is > 100 µM; in the assay with MALME-3M melanoma it was > 65 µM; with MDA-MB-435, 36.7 µM; with NCI-H23 lung it was > 100 µM; in the assay on NCI-H522 lung, 87.5 µM; in the assay on PC-3 prostate it was > 100 µM. For the same compound, the TGI is > 100 µM with SN12C renal, 5.39 µM in the assay with SR leukemia, > 100 µM in the assay with T-47D breast and > 100 µM in the assay with U251 CNS.
